Patent publication US12421212B2, “Substituted benzenecarboxamides as IL-17A modulators” (DiCE Alpha, Inc., priority 2019, dated 2025)

Biological target: T1, IL-17A/A (Homo sapiens, UniProt Q16552)
T1 construct: purchased Genscript Z03228
T1 sequence (Q16552 24-155): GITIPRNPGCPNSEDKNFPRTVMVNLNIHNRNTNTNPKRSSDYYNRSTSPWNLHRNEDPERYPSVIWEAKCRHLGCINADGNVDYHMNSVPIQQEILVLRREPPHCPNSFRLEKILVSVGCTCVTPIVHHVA
Assay: IL-17A/A HEK-Blue Cell Assay
Assay type: cell-based
Conditions: HEK-Blue IL-17A reporter cell line, SEAP readout at A630, 20 hours incubation with IL-17A/A, top concentration 10 uM, 1 uM or 0.3 uM; for IC50: read-out: IL-17A/A inhibition (pIC50) (converted)

Structure (SMILES) | IL-17A/A inhibition (pIC50) | IC50 [nM]
CCC(=O)N[C@@H](C(=O)N1CC(n2ccnc2)C1)[C@@H](C)c1ccc(NC(=O)[C@@H](NC(=O)c2nonc2CC)[C@H]2CC[C@H](C)CC2)c(F)c1 [Compound 580] | X3a (compounds were evaluated up to 0.3 uM and did not inhibit activity by >80%, however they showed some activity at 0.3 uM (less than 80% and more than 20%)) | –
CCC(=O)N[C@@H](C(=O)N1CCN(C)CC1)[C@@H](C)c1ccc(NC(=O)[C@@H](NC(=O)c2nonc2C)[C@H]2CC[C@H](C)CC2)c(F)c1 [Compound 582] | – | 10 to 100
Cc1nonc1C(=O)N[C@H](C(=O)Nc1ccc([C@H](C)[C@@H](NC(=O)c2cnns2)C(=O)N2CCN(C)CC2)cc1F)[C@H]1CC[C@H](C)CC1 [Compound 583] | – | < 10
CCC(=O)N[C@@H](C(=O)N1CCN(C)CC1)[C@@H](C)c1ccc(NC(=O)[C@@H](NC(=O)c2nonc2CC)[C@H](C)[C@H]2CC[C@H](C)CC2)c(F)c1 [Compound 586] | – | < 10
CCC(=O)N[C@@H](C(=O)N1CCN(C)CC1)[C@@H](C)c1ccc(NC(=O)[C@@H](NC(=O)c2ccnn2CC)[C@H](C)[C@H]2CC[C@H](C)CC2)c(F)c1 [Compound 587] | – | 10 to 100
CCn1nnnc1C(=O)N[C@H](C(=O)Nc1ccc([C@H](C)[C@@H](NC(=O)N(C)C2CC2)C(=O)N2CCN(C)[C@H](C)C2)cc1F)[C@H]1CC[C@H](C)CC1 [Compound 604] | – | < 10
CCn1nnnc1C(=O)N[C@H](C(=O)Nc1ccc([C@H](C)[C@@H](NC(=O)C(C)(F)F)C(=O)N2CCN(C)[C@H](C)C2)cc1F)[C@H]1CC[C@H](C)CC1 [Compound 605] | – | 10 to 100
CCC(=O)N[C@@H](C(=O)N1CCN(C)CC1)[C@@H](C)c1ccc(NC(=O)C(NC(=O)c2nonc2CC)C(C)C2CCC(F)(F)CC2)c(F)c1 (stereo partly drawn) [Compound 607] | – | 10 to 100
CCC(=O)N[C@@H](C(=O)N1CCN(C)CC1)[C@@H](C)c1ccc(NC(=O)[C@@H](NC(=O)c2ccnn2CC)[C@H](OC)c2ccc(F)cc2)c(F)c1 [Compound 610] | – | 100 to 10000
CCC(=O)N[C@@H](C(=O)N1CCN(C)CC1)[C@@H](C)c1ccc(NC(=O)[C@@H](NC(=O)c2nonc2CC)[C@H](OC)c2ccc(F)cc2)c(F)c1 [Compound 611] | – | 10 to 100
CCC(=O)N[C@@H](C(=O)N1CCN(C)CC1)[C@@H](C)c1ccc(NC(=O)C(NC(=O)c2ccnn2CC)C(C)C2CCC(C)CC2)c(F)c1 (stereo partly drawn) [Compound 612] | X2b (compounds were evaluated up to 1 uM and inhibited activity at 1 uM by less than 20%) | –
COc1ccc(C(F)(F)C(=O)N[C@H](C(=O)Nc2ccc([C@H](C)[C@@H](NC(=O)c3cnns3)C(=O)N3CCN(C)CC3)cc2F)[C@H]2CC[C@H](C)CC2)cn1 [Compound 620] | – | < 10
COc1ncc(C(F)(F)C(=O)N[C@H](C(=O)Nc2ccc([C@H](C)[C@@H](NC(=O)c3cnns3)C(=O)N3CCN(C)CC3)cc2F)[C@H]2CC[C@H](C)CC2)cn1 [Compound 621] | – | 10 to 100
COc1ccc(C(F)(F)C(=O)N[C@H](C(=O)Nc2ccc([C@H](C)[C@@H](NC(=O)c3cnsc3)C(=O)N3CCN(C)CC3)cc2F)[C@H]2CC[C@H](C)CC2)cn1 [Compound 622] | – | 10 to 100
CCn1nccc1C(=O)N[C@H](C(=O)Nc1ccc(C[C@@H](NC(=O)c2ccnn2-c2ccc(=O)[nH]c2)C(=O)N2CCN(C)CC2)cc1F)C1CCCCC1 [Compound 623] | – | 100 to 10000
CCn1nccc1C(=O)N[C@H](C(=O)Nc1ccc([C@H](C)[C@@H](NC(=O)c2cc(C#N)cs2)C(=O)N2CCN(C)CC2)cc1F)C1CCCCC1 [Compound 624] | – | 100 to 10000
CCC(=O)N[C@@H](C(=O)N1CCN(C)CC1)[C@@H](C)c1ccc(NC(=O)[C@@H](NC(=O)C(F)(F)C23CC(C2)C3)C2CCCCC2)c(F)c1 [Compound 625] | – | 100 to 10000
CCC(=O)N[C@@H](C(=O)N1CCN(C)CC1)[C@@H](C)c1ccc(NC(=O)[C@@H](NC(=O)C(=O)c2ccc(NS(C)(=O)=O)nc2)C2CCCCCC2)c(F)c1 [Compound 626] | – | 100 to 10000
CCC(=O)N[C@H](Cc1ccc(NC(=O)[C@@H](NC(=O)c2ccnn2CC)[C@H]2CC[C@H](C)CC2)c(F)c1)C(=O)N1CCN(C)CC1 [Compound 627] | – | 100 to 10000
CCn1nccc1C(=O)N[C@H](C(=O)Nc1ccc([C@H](C)[C@@H](NC(=O)NC2CCC2)C(=O)N2CCN(C)CC2)cc1F)C1CCCCC1 [Compound 628] | – | 100 to 10000
CCC(=O)N[C@@H](C(=O)N1CC(F)(F)C1)[C@@H](C)c1ccc(NC(=O)[C@@H](NC(=O)c2ccnn2CC)C2CCCCC2)c(F)c1 [Compound 629] | – | 100 to 10000
CCC(=O)N[C@H](Cc1ccc(NC(=O)[C@@H](NC(=O)c2conc2CC)[C@H]2CC[C@H](C)CC2)c(F)c1)C(=O)N1CCN(C)CC1 [Compound 630] | – | 100 to 10000
CCC(=O)N[C@@H](C(=O)N1CCN(C)CC1)[C@@H](C)c1ccc(NC(=O)[C@@H](NC(=O)c2csc3ccncc23)C2CCCCC2)c(F)c1 [Compound 631] | – | 100 to 10000
CCC(=O)N[C@H](Cc1ccc(NC(=O)[C@@H](NC(=O)c2coc3ccccc23)C2CCCCC2)c(F)c1)C(=O)N1CCN(C)CC1 [Compound 632] | – | 100 to 10000

Structure (SMILES) | IL-17A/A inhibition (pIC50) | IC50 [nM]
CCC(=O)N[C@@H](C(=O)N1CCN(C)CC1)[C@@H](C)c1ccc(NC(=O)[C@@H](NC(=O)c2ccnn2C(C)C)C2CCCCC2)cc1 [Compound 633] | – | 100 to 10000
CCC(=O)N[C@H](Cc1ccc(NC(=O)C(NC(=O)c2ccnn2CC)C2CCc3ccccc3C2)c(F)c1)C(=O)N1CCN(C)CC1 (stereo partly drawn) [Compound 634] | – | 100 to 10000
CCn1nccc1C(=O)N[C@H](C(=O)Nc1ccc([C@H](C)[C@@H](NC(=O)c2ccc(C)s2)C(=O)N2CCN(C)CC2)cc1F)C1CCCCC1 [Compound 635] | – | 100 to 10000
CCn1nccc1C(=O)N[C@H](C(=O)Nc1ccc([C@H](C)[C@@H](NC(=O)NC)C(=O)N2CCN(C)CC2)cc1F)C1CCCCC1 [Compound 636] | – | 100 to 10000
CCC(=O)N[C@H](Cc1ccc(NC(=O)[C@@H](NC(=O)c2ccnn2C(C)C)C2CCCCC2)c(F)c1)C(=O)N1CCN(C)CC1 [Compound 637] | – | 100 to 10000
CCC(=O)N[C@@H](C(=O)N1CCN(C)CC1)[C@@H](C)c1ccc(NC(=O)[C@@H](NC(=O)C(F)(F)c2ccccc2C#N)C2CCCCC2)c(F)c1 [Compound 638] | – | 100 to 10000
CCC(=O)N[C@@H](C(=O)N1CCN(C)CC1)[C@@H](C)c1ccc(NC(=O)[C@@H](NC(=O)c2ccnn2CC)C2CCCCC2)cc1 [Compound 639] | – | 100 to 10000
CCC(=O)N[C@H](Cc1ccc(NC(=O)[C@@H](NC(=O)c2ccnn2CC)C2CCCCC2)c(F)c1)C(=O)N1CCN(Cc2ccccn2)CC1 [Compound 640] | – | 100 to 10000
CCC(=O)N[C@H](Cc1ccc(NC(=O)[C@@H](NC(=O)C(F)(F)c2cccc(NS(C)(=O)=O)c2)C2CCCCC2)c(F)c1)C(=O)N1CCN(C)CC1 [Compound 642] | – | 100 to 10000
CCn1nccc1C(=O)N[C@H](C(=O)Nc1ccc([C@H](C)[C@@H](NC(=O)CC(F)(F)F)C(=O)N2CCN(C)CC2)cc1F)C1CCCCC1 [Compound 643] | – | 100 to 10000
CCn1nccc1C(=O)N[C@H](C(=O)Nc1ccc([C@H](C)[C@@H](NC(=O)c2csnn2)C(=O)N2CCN(C)CC2)cc1F)C1CCCCC1 [Compound 644] | – | 100 to 10000
CCC(=O)N[C@H](Cc1ccc(NC(=O)[C@@H](NC(=O)c2ccnn2CC)C2CCCCC2)c(F)c1)C(=O)N1CCN(C)CC1 [Compound 645] | – | 100 to 10000
CCC(=O)N[C@H](Cc1ccc(NC(=O)[C@@H](NC(=O)c2ccnn2CC(C)C)C2CCCCC2)c(F)c1)C(=O)N1CCN(C)CC1 [Compound 646] | – | 100 to 10000
CCC(=O)N[C@H](Cc1ccc(NC(=O)[C@@H](NC(=O)c2ccnn2CC)[C@@H](C)c2ccccc2)c(F)c1)C(=O)N1CCN(C)CC1 [Compound 647] | – | 100 to 10000
CCC(=O)N[C@H](Cc1ccc(NC(=O)[C@@H](NC(=O)c2ccnn2CC(F)(F)F)C2CCCCC2)c(F)c1)C(=O)N1CCN(C)CC1 [Compound 648] | – | 100 to 10000
CCC(=O)N[C@@H](C(=O)N1CCN(C)CC1)[C@@H](C)c1ccc(NC(=O)[C@@H](NC(=O)c2ccnn2CC)[C@H]2CC[C@H](C(F)(F)F)CC2)c(F)c1 [Compound 649] | – | 100 to 10000
CCn1nccc1C(=O)N[C@H](C(=O)Nc1ccc(C[C@@H](NC(=O)CC2CC2)C(=O)N2CCN(C)CC2)cc1F)C1CCCCC1 [Compound 650] | – | 100 to 10000
CCC(=O)N[C@H](Cc1ccc(NC(=O)[C@@H](NC(=O)c2ccnn2CC)C2CCCCC2)c(F)c1)C(=O)N1CCN(C(C)C)CC1 [Compound 651] | – | 100 to 10000
CCC(=O)NC(Cc1ccc(NC(=O)[C@@H](NC(=O)c2ccnn2CC)C2CCCCC2)c(F)c1)C(=O)N1CCN(Cc2cccnc2)CC1 (stereo partly drawn) [Compound 652] | – | 100 to 10000
CCC(=O)N[C@@H](C(=O)N1CCN(C)CC1)[C@@H](C)c1ccc(NC(=O)[C@@H](NC(=O)C(F)(F)C2CCN(C(C)=O)CC2)C2CCCCC2)c(F)c1 [Compound 653] | – | 100 to 10000
CCn1nccc1C(=O)N[C@H](C(=O)Nc1ccc([C@H](C)[C@@H](NC(=O)c2cc(C#N)n[nH]2)C(=O)N2CCN(C)CC2)cc1F)C1CCCCC1 [Compound 655] | – | 100 to 10000
CCn1nccc1C(=O)N[C@H](C(=O)Nc1ccc([C@H](C)[C@@H](NC(=O)c2cc(C)no2)C(=O)N2CCN(C)CC2)cc1F)C1CCCCC1 [Compound 656] | – | 100 to 10000
CCn1nccc1C(=O)N[C@H](C(=O)Nc1ccc([C@H](C)[C@@H](NC(=O)c2cncn2C)C(=O)N2CCN(C)CC2)cc1F)C1CCCCC1 [Compound 657] | – | 100 to 10000
CCC(=O)N[C@@H](C(=O)N1CCN(C)CC1)[C@@H](C)c1ccc(NC(=O)[C@@H](NC(=O)C(F)(F)C2CCOCC2)[C@H]2CC[C@H](C)CC2)c(F)c1 [Compound 660] | X3a (compounds were evaluated up to 0.3 uM and did not inhibit activity by >80%, however they showed some activity at 0.3 uM (less than 80% and more than 20%)) | –
